Assay results as given in patent publication US7196080B2, “Phenylpyridinecarbonylpiperazinederivative” (Astellas Pharma Inc., priority 2001, dated 2007).

Experiments:
PDE1 = PDE1 inhibitory activity; assay type: biochemical; conditions: in the same concentration (as the PDE4 IC50, 12 nM or less)
Experimental: (§1) A concentration of test compound which inhibits 50% of the metabolic activity of PDE4 was defined as IC50 and calculated for each compound. By applying the above test method and the method described in WO 97/19078, inhibitory activity against PDE1, PDE2, PDE3 and PDE5 was measured similarly.

PDE2 = PDE2 (Homo sapiens, UniProt O00408); test: PDE2 inhibitory activity; assay type: biochemical; conditions: in the same concentration (as the PDE4 IC50, 12 nM or less)
Chain of PDE2 (O00408 whole entry): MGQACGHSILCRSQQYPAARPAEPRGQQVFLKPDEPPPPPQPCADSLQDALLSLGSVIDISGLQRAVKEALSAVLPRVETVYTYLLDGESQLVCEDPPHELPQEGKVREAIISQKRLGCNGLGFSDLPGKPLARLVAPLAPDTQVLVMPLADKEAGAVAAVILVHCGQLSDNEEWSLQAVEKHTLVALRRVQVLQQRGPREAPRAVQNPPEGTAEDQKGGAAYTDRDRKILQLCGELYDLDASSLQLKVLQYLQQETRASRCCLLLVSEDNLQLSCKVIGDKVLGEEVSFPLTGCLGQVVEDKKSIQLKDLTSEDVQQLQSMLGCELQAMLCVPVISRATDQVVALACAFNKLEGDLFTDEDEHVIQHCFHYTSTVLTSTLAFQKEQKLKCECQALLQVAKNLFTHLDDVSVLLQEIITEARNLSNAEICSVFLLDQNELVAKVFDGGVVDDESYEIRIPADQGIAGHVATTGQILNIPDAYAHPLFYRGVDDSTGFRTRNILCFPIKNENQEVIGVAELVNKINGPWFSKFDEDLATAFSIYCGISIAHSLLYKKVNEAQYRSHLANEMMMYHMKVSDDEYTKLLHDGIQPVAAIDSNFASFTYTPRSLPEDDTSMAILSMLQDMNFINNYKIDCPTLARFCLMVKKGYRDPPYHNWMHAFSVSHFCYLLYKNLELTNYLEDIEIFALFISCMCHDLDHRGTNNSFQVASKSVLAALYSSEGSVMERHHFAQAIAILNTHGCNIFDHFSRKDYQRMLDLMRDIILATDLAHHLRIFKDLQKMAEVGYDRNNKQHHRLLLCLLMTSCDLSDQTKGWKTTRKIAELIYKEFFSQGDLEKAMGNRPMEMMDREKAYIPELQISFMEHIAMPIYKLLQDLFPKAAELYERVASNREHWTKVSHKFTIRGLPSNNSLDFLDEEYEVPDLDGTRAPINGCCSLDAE
Experimental: as §1

PDE3 = PDE3 inhibitory activity; assay type: biochemical; conditions: in the same concentration (as the PDE4 IC50, 12 nM or less)
Experimental: as §1

PDE5 = PDE5 (Homo sapiens, UniProt O76074); test: PDE5 inhibitory activity; assay type: biochemical; conditions: in the same concentration (as the PDE4 IC50, 12 nM or less)
Experimental: as §1

| Compound | inhibitory activity against PDE1 (PDE1) | inhibitory activity against PDE2 (PDE2) | inhibitory activity against PDE3 (PDE3) | inhibitory activity against PDE5 (PDE5) | melting point |
| --- | --- | --- | --- | --- | --- |
| 4-{2-[(6-{4-]6-(3,4-dimethoxyphenyl)pyridine-2-carbonyl)piperazin-1-yl}-3-pyridyl}oxylethyl)morpholine [Example 99] | hardly exhibited inhibitory activity | hardly exhibited inhibitory activity | hardly exhibited inhibitory activity | hardly exhibited inhibitory activity | – |
| COc1ccc(-c2cccc(C(=O)N3CCN(c4ccc(C(C)=O)cc4)CC3)n2)cc1OCC1CC1 (hydrate or solvate) [Example 112, 1-(4-{4-[6-(3-cyclopropylmethoxy-4-methoxyphenyl)pyridine-2-carbonyl]piperazin-1-yl}phenyl)ethanone] | – | – | – | – | 142 to 144 °C |
| COc1ccc(N2CCN(C(=O)c3cccc(-c4ccc(OC)c(OC)c4)n3)CC2)cc1 [Example 2, 1-[6-(3,4-dimethoxyphenyl)pyridine-2-carbonyl]-4-(4-methoxyphenyl)piperazine] | hardly exhibited inhibitory activity | hardly exhibited inhibitory activity | hardly exhibited inhibitory activity | hardly exhibited inhibitory activity | 169 to 172 °C |
| COc1ccc(-c2cccc(C(=O)N3CCN(c4ccc(N)cc4)CC3)n2)cc1OC [Example 9, 1-[6-(3,4-dimethoxyphenyl)pyridine-2-carbonyl]-4-(4-aminophenyl) piperazine] | – | – | – | – | 164 to 165 °C |
| COc1ccc(-c2cccc(C(=O)N3CCN(c4ccc(OCc5cc[n+]([O-])cc5)cc4)CC3)n2)cc1OC [Example 10, 1-[6-(3,4-dimethoxyphenyl)pyridine-2-carbonyl]-4-[4-(1-oxido-4-pyridylmethoxy)phenyl]piperazine] | hardly exhibited inhibitory activity | hardly exhibited inhibitory activity | hardly exhibited inhibitory activity | hardly exhibited inhibitory activity | 182 to 183 °C |
| COc1ccc(-c2cccc(C(=O)N3CCN(c4ccc(C(N)=O)cc4)CC3)n2)cc1OC [Example 12, 4-{4-[6-(3,4-dimethoxyphenyl)pyridine-2-carbonyl]piperazin-1-yl}benzamide] | – | – | – | – | 237 to 240 °C |
| COc1ccc(-c2cccc(C(=O)N3CCN(c4ccc(N5CCOCC5)cc4)CC3)n2)cc1OC [Example 15, 4-(4-{4-[6-(3,4-dimethoxyphenyl)pyridine-2-carbonyl]piperazin-1-yl)phenyl)morpholine] | hardly exhibited inhibitory activity | hardly exhibited inhibitory activity | hardly exhibited inhibitory activity | hardly exhibited inhibitory activity | 129 to 130 °C |
| COc1ccc(-c2cccc(C(=O)N3CCN(c4ccc(NS(C)(=O)=O)cc4)CC3)n2)cc1OC [Example 16, 4′-{4-[6-(3,4-dimethoxyphenyl)pyridine-2-carbonyl]piperazin-1-yl}methanesulfonanilide] | – | – | – | – | 168 to 170 °C |
| COc1ccc(-c2cccc(C(=O)N3CCN(c4ccc(C(C)=O)cc4)CC3)n2)cc1OC [Example 32] | hardly exhibited inhibitory activity | hardly exhibited inhibitory activity | hardly exhibited inhibitory activity | hardly exhibited inhibitory activity | 161 to 163 °C |
| COc1ccc(-c2cccc(C(=O)N3CCN(c4ccc(NC(C)=O)cc4)CC3)n2)cc1OC [Example 43, 4′-{4-[6-(3,4-dimethoxyphenyl)pyridine-2-carbonyl]piperazin-1-yl}acetanilide] | hardly exhibited inhibitory activity | hardly exhibited inhibitory activity | hardly exhibited inhibitory activity | hardly exhibited inhibitory activity | 201 to 203 °C |
| CCN(CC)CCC(=O)Nc1ccc(N2CCN(C(=O)c3cccc(-c4ccc(OC)c(OC)c4)n3)CC2)cc1 [Example 45, 3-diethylamino-4′-{4-[6-(3,4-dimethoxyphenyl)pyridine-2-carbonyl]piperazin-1-yl}propananilide] | hardly exhibited inhibitory activity | hardly exhibited inhibitory activity | hardly exhibited inhibitory activity | hardly exhibited inhibitory activity | 131 to 134 °C |
| COc1ccc(-c2cccc(C(=O)N3CCN(c4cccc(Br)n4)CC3)n2)cc1OC [Example 77, 1-(6-bromo-2-pyridyl)-4-[6-(3,4-dimethoxyphenyl)pyridine-2-carbonyl]piperazine] | hardly exhibited inhibitory activity | hardly exhibited inhibitory activity | hardly exhibited inhibitory activity | hardly exhibited inhibitory activity | 144 to 145 °C |
| COc1ccc(-c2cccc(C(=O)N3CCN(c4ccc(OCCN5CCC(O)CC5)cc4)CC3)n2)cc1OC [Example 95, 1-[2-(4-{4-[6-(3,4-dimethoxyphenyl)pyridine-2-carbonyl]piperazin-1-yl}phenoxy)ethyl]piperidin-4-ol] | hardly exhibited inhibitory activity | hardly exhibited inhibitory activity | hardly exhibited inhibitory activity | hardly exhibited inhibitory activity | 143 to 144 °C |
| COc1ccc(-c2cccc(C(=O)N3CCN(c4ccc(C(C)=O)cc4)CC3)n2)cc1OCC1CC1 [Example 112, 1-(4-{4-[6-(3-cyclopropylmethoxy-4-methoxyphenyl)pyridine-2-carbonyl]piperazin-1-yl}phenyl)ethanone] | hardly exhibited inhibitory activity | hardly exhibited inhibitory activity | hardly exhibited inhibitory activity | hardly exhibited inhibitory activity | – |
| COc1ccc(-c2cccc(C(=O)N3CCN(c4ccc(C(C)=O)cc4)CC3)n2)cc1Cl [Example 113] | – | – | – | – | 168 to 170 °C |
| COc1ccc(-c2cccc(C(=O)N3CCN(c4ccc(C(C)=O)cc4)CC3)n2)cc1OC(F)F [Example 114] | – | – | – | – | 160 to 162 °C |
| COc1ccc(-c2cccc(C(=O)N3CCN(c4ccc(C(C)=O)cc4)CC3)n2)cc1F [Example 115] | – | – | – | – | 168 to 170 °C |
